# Measured values as given in US20120122079A1, “INFECTION DETECTION METHODS AND SYSTEMS AND RELATED COMPOUNDS AND COMPOSITIONS” (priority 2010, published 2012).
# Tested on: viral neuraminidase
# Type: biochemical, influenza
# Details: pH 5.5
compound,measurement,value
"CC(=O)NC1C(O)CC(OCC2(C)CC2CC2CC3CC3(C)C2(C)C)(C(=O)O)OC1CC(O)CO [javanol, Sodium ([(1R,2S)-1-methyl-2-[[(1R,3S,5S)-1,2,2-trimethyl-3-bicyclo[3.1.0]hexanyl]methyl]cyclopropyl]methyl-5-acetamido-3,5-dideoxy-α-D-glycero-D-galacto-2-nonulopyranoside)onate]",whether the substrate was cleaved and odorant released (decrease of the substrate signal and appearance of the cleavage products signal),substrate is still present
"Sodium (4-(4-hydroxy-3-methoxyphenyl)butan-2-one-5-acetamido-3,5-dideoxy-α-D-glycero-D-galacto-2-nonulopyranoside)onate [zingerone]",whether the substrate was cleaved and odorant released (decrease of the substrate signal and appearance of the cleavage products signal),significant loss of peak
